Test results reported in patent US8951340B2, “Water-insoluble coloring matter compound, ink using the water-insoluble coloring matter compound, thermal transfer recording sheet and resist composition for color filter” (Canon Kabushiki Kaisha, priority 2011, dated 2015).
Where two headings read alike, the source gives them in different places.

Columns and labels:
[1] = Evaluation of solubility of compound for solvent (30 mg in 0.7 mL, visually observed); format: physicochemical; conditions: organic solvent or mixture, thermodynamic from solid, room temperature, visual
Method: 30 mg of each of water-insoluble coloring matter compounds (1), (4), (6), (8) to (10), (14), (15), (20), and (21) and comparative compounds (1) to (3) was dissolved at room temperature in 0.7 mL of toluene, 0.7 mL of methanol, 0.7 mL of ethyl acetate, and 0.7 mL of chloroform, respectively. These solutions were visually observed, and the solubility of the compound for the solvent was evaluated.
A: completely dissolved (solubility is very good)
B: slightly suspended (solubility is good)
C: not dissolved at all (solubility is bad)

[2] = Solubility in water of the compound at room temperature and at 60° C.; format: physicochemical; conditions: mass percentage
From the text: The water-insoluble coloring matter compound represented by the formula (1) according to the present invention has high affinity for an organic solvent. In the present invention, “water-insoluble” means that solubility in water is less than 1% in terms of mass percentage.

[3] = 30 mg in 0.7 mL chloroform, read-out: Solubility Chloroform
[4] = 30 mg in 0.7 mL ethyl acetate, read-out: Solubility Ethyl acetate
[5] = 30 mg in 0.7 mL methanol, read-out: Solubility Methanol
[6] = 30 mg in 0.7 mL toluene, read-out: Solubility Toluene

solubility [1, 3] [mg/mL]	solubility [1, 4] [mg/mL]	solubility [1, 5] [mg/mL]	solubility [1, 6] [mg/mL]	solubility in water ([2]; 60° C.)	solubility in water ([2]; room temperature)	Compound
< 42.9	< 42.9	< 42.9	< 42.9	–	–	Cn1c(=O)cc2c3c(c(Nc4ccccc4)ccc31)C(=O)c1ccccc1-2 [(1)]
< 42.9	< 42.9	< 42.9	< 42.9	–	–	Cc1ccc(Nc2ccc3c4c(cc(=O)n3C)-c3ccccc3C(=O)c24)cc1 [(2)]
< 42.9	< 42.9	< 42.9	< 42.9	–	–	CCCCn1c(=O)c(C(=O)c2ccccc2)c2c3c(c(Nc4ccc(C)cc4)ccc31)C(=O)c1ccccc1-2 [(3)]
–	–	–	–	less than 1%	less than 1%	CCCCC(CC)CNc1ccc2c3c1C(=O)c1ccccc1-c3c(C(C)=O)c(=O)n2CCCC (stereo not drawn) [Compound (1)]
–	–	–	–	less than 1%	less than 1%	CCCCC(CC)CNc1ccc2c3c1C(=O)c1ccccc1-c3c(C(=O)c1ccccc1)c(=O)n2CCCC (stereo not drawn) [Compound (4)]
–	–	–	–	less than 1%	less than 1%	CCCCC(CC)CNc1ccc2c3c1C(=O)c1ccccc1-c3c(C(=O)c1ccc(OC)cc1)c(=O)n2CCCC (stereo not drawn) [Compound (6)]
–	–	–	–	less than 1%	less than 1%	CCCCC(CC)CNc1ccc2c3c1C(=O)c1ccccc1-c3c(C(=O)c1ccccc1)c(=O)n2CC(CC)CCCC (stereo not drawn) [Compound (8)]
–	–	–	–	less than 1%	less than 1%	CCCCC(CC)CNc1ccc2c3c1C(=O)c1ccccc1-c3c(C(=O)OCC)c(=O)n2CC(CC)CCCC (stereo not drawn) [Compound (9)]
–	–	–	–	less than 1%	less than 1%	CCCCOCCCNc1ccc2c3c1C(=O)c1ccccc1-c3c(C(=O)c1ccccc1)c(=O)n2CC(CC)CCCC (stereo not drawn) [Compound (10)]
–	–	–	–	less than 1%	less than 1%	CCCCC(CC)CNc1ccc2c3c1C(=O)c1ccccc1-c3c(C(=O)c1ccccc1)c(=O)n2C (stereo not drawn) [Compound (14)]
–	–	–	–	less than 1%	less than 1%	CCCCC(CC)Cn1c(=O)c(C(=O)c2ccccc2)c2c3c(c(NC4CCCCC4)ccc31)C(=O)c1ccccc1-2 (stereo not drawn) [Compound (15)]
–	–	–	–	less than 1%	less than 1%	CCCCNc1ccc2c3c1C(=O)c1ccccc1-c3c(C(=O)c1ccccc1)c(=O)n2CCCC [Compound (21)]
